Results: patent publication US20230060425A1, “FUSED BICYCLIC HETEROCYCLE DERIVATIVES AS PESTICIDES” (Bayer Aktiengesellschaft, priority 2019, published 2023)
Where two headings read alike, the source gives them in different places.

Legend:
Type in all cases: in vivo
Ctenocephalides felis [1] = assay: Ctenocephalides felis in vitro contact test with adult cat fleas; conditions: application rate 5 μg/cm^2 (=500 g/ha); after 48 h; fleas dead or moribund
Description: Ctenocephalides felis—In Vitro Contact Tests with Adult Cat Fleas
For the coating of the test tubes, 9 mg of active compound are first dissolved in 1 ml of acetone p.a. and then diluted to the desired concentration with acetone p.a. 250 μl of the solution are distributed homogeneously on the inner walls and the base of a 25 ml glass tube by turning and rocking on an orbital shaker (rocking rotation at 30 rpm for 2 h). With 900 ppm of active compound solution and internal surface area 44.7 cm^2, given homogeneous distribution, an area-based dose of 5 μg/cm^2 is achieved.
After the solvent has evaporated off, the tubes are populated with 5-10 adult cat fleas (Ctenocephalides felis), sealed with a perforated plastic lid and incubated in a horizontal position at room temperature and ambient humidity. After 48 h, efficacy is determined. To this end, the tubes are stood upright and the fleas are knocked to the base of the tube. Fleas which remain motionless at the base or move in an uncoordinated manner are considered to be dead or moribund.
100% efficacy means that all the fleas were dead or moribund. 0% efficacy means that no fleas were harmed.

Spodoptera frugiperda = Spodoptera frugiperda test on maize plants (SPODFR S); conditions: 6 dai, read-out: % Efficacy
Description: Spodoptera frugiperda Test (SPODFR S)
(§1) Solvent: 14 parts by weight of dimethylformamide
Emulsifier: 2 parts by weight of alkylaryl polyglycol ether
To produce a suitable active compound formulation, 1 part by weight of active compound is dissolved with the stated parts by weight of solvent and emulsifier and made up to the desired concentration with water. To produce further test concentrations, water is used for dilution. In the event that addition of ammonium salts or/and penetrants (rapeseed oil methyl ester) is required, these are each pipetted in at a concentration of 1000 ppm after the finished formulation solution has been diluted.
Maize plants (Zea mays) are sprayed with an active compound formulation of the desired concentration and, in each case after 5, 12 and 19 days, populated with 5 caterpillars (L2) of the fall armyworm (Spodoptera frugiperda).
The kill is determined 6 days after the infection. 100% means that all the caterpillars have been killed and 0% means that none of the caterpillars have been killed.

Myzus persicae [2] = assay: Myzus persicae spray test; conditions: foliar, 120 h, application rate 100 g/ha, Chinese cabbage leaf discs, after 5 days, read-out: efficacy
Method in brief: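 Chinese cabbage leaf discs infested with all stages of Myzus persicae were sprayed with compound in acetone/DMF, diluted in water containing 1000 ppm emulsifier. Efficacy in % assessed after 5 days: 100% all aphids killed, 0% none killed.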

Ctenocephalides felis [3] = assay: Ctenocephalides felis oral test; conditions: 48 h, application rate 100 ppm, in citrated cattle blood, after 2 days, read-out: efficacy (kill in %)
Method in brief: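 Adult unfed cat fleas (~20 per chamber) fed through parafilm membrane on citrated cattle blood containing compound (DMSO formulation diluted in blood to test concentration). Kill (%) scored after 2 days; 100% = all fleas dead, 0% = none.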

Aphis gossypii = Aphis gossypii spray test (APHIGO S); conditions: 144 h, 6 dat, read-out: % Efficacy
Description: Aphis gossypii—Spray Test (APHIGO S)
as §1
(§2) Emulsifier: alkylaryl polyglycol ether
(§3) To produce a suitable active compound preparation, 1 part by weight of active compound is dissolved using the stated parts by weight of solvent and made up with water containing an emulsifier concentration of 1000 ppm until the desired concentration is attained. To produce further test concentrations, the formulation is diluted with emulsifier-containing water. If the addition of ammonium salts or/and penetrants is required, these are each added in a concentration of 1000 ppm to the formulation solution.
Cotton plants (Gossypium hirsutum) heavily infested by the cotton aphid (Aphis gossypii) are sprayed with an active compound formulation of the desired concentration.
After the desired time, the kill in % is determined. 100% means that all the aphids have been killed; 0% means that no aphids have been killed.

Myzus persicae [4] = assay: Myzus persicae spray test on bell pepper plants (MYZUPE S); conditions: 144 h, 6 dat, read-out: % Efficacy
Description: Myzus persicae—Spray Test (MYZUPE S)
as §1, §2, §3
Bell pepper plants (Capsicum annuum) severely infested with the green peach aphid (Myzus persicae) are treated by spraying with the active compound formulation in the desired concentration.
After the desired time, the kill in % is determined. 100% means that all the animals have been killed; 0% means that no animals have been killed.

For `CCS(=O)(=O)c1c(-c2nc3cc(C(F)(F)F)cnc3n2C)ncc2cc(Br)ccc12` [Example I-037, 7-Bromo-4-ethylsulfonyl-3-[3-methyl-6-(trifluoromethyl)imidazo[4,5-b]pyridin-2-yl]isoquinoline], the efficacy (Ctenocephalides felis [1]) was 100%, the Emax at 0.16 ppm (Spodoptera frugiperda; 120 h, infection 5 dat) was 70% and the Emax at 0.16 ppm (Spodoptera frugiperda; 288 h, infection 12 dat) was 50%. It also gave an Emax at 0.8 ppm (Spodoptera frugiperda; 288 h, infection 12 dat) of 100%, an Emax at 0.8 ppm (Spodoptera frugiperda; 456 h, infection 19 dat) of 100% and a pest or weed control at 100 g/ha (Myzus persicae [2]) of 100%. It also gave a pest or weed control at 100 ppm (Ctenocephalides felis [3]) of 100%, an Emax at 4 ppm (Aphis gossypii) of 65% and an Emax at 0.8 ppm (Myzus persicae [4]; 0.8 ppm) of 100%. For the same compound, the Emax at 4 ppm (Myzus persicae [4]; 4 ppm) was 100%.
